Measured values published in the supplement of paper PMC10307832.

Assays:
Assay in all cases: relative viability (nuclei count vs DMSO), 5 days (fraction); higher = more cells survive
[1] = tested on: RERF-LC-KJ
Procedure, shortened: (§1)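 Lung cancer cell lines were pin-tool dosed in 1536-well plates on the day after seeding, with either a lone drug or a fixed anchor-drug dose plus five library-drug doses (not always all listed) in √10 steps. Nuclei were counted on 4× images after 5 days. Relative viability is the ratio of treated-well to vehicle-well nuclei counts, with each value a median of duplicate plates.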

[2] = tested on: CAL-12T
Procedure, shortened: as §1

[3] = tested on: NCI-H1437
Procedure, shortened: as §1

[4] = tested on: PC-3 [JPC-3]
Procedure, shortened: as §1

[5] = tested on: UMC-11
Procedure, shortened: as §1

[6] = tested on: NCI-H596
Procedure, shortened: as §1

[7] = tested on: SK-LU-1
Procedure, shortened: as §1

[8] = tested on: NCI-H1563
Procedure, shortened: as §1

[9] = tested on: NCI-H1734
Procedure, shortened: as §1

[10] = tested on: NCI-H1755
Procedure, shortened: as §1

[11] = tested on: EMC-BAC-2
Procedure, shortened: as §1

[12] = tested on: HOP-62
Procedure, shortened: as §1

[13] = tested on: NCI-H441
Procedure, shortened: as §1

[14] = tested on: ABC-1
Procedure, shortened: as §1

[15] = tested on: NCI-H3122
Procedure, shortened: as §1

[16] = tested on: HARA
Procedure, shortened: as §1

[17] = tested on: LK-2
Procedure, shortened: as §1

[18] = tested on: NCI-H1651
Procedure, shortened: as §1

[19] = tested on: NCI-H727
Procedure, shortened: as §1

[20] = tested on: NCI-H2347
Procedure, shortened: as §1

[21] = tested on: COR-L23
Procedure, shortened: as §1

[22] = tested on: HCC-366
Procedure, shortened: as §1

[23] = tested on: NCI-H1650
Procedure, shortened: as §1

Nc1cccc2c1CN(C1CCC(=O)NC1=O)C2=O (stereo not given) [Lenalidomide] + Cc1nc(NC(=O)N2CCC[C@H]2C(N)=O)sc1-c1ccnc(C(C)(C)C(F)(F)F)c1 [Alpelisib] (partner 2 µM)
relative viability ([1]; first compound 0.253 µM): 0.624
relative viability ([1]; first compound 0.8 µM): 0.904
relative viability ([1]; first compound 2.53 µM): 0.752
relative viability ([1]; first compound 8 µM): 0.637
relative viability ([2]; first compound 0.253 µM): 1.09
relative viability ([2]; first compound 0.8 µM): 1.33
relative viability ([2]; first compound 2.53 µM): 1.52
relative viability ([2]; first compound 8 µM): 1.36
relative viability ([3]; first compound 0.253 µM): 1.01
relative viability ([3]; first compound 0.8 µM): 1.03
relative viability ([3]; first compound 2.53 µM): 1.09
relative viability ([3]; first compound 8 µM): 1
relative viability ([4]; first compound 0.253 µM): 0.992
relative viability ([4]; first compound 0.8 µM): 0.981
relative viability ([4]; first compound 2.53 µM): 1.09
relative viability ([4]; first compound 8 µM): 1.05
relative viability ([5]; first compound 0.253 µM): 1.05
relative viability ([5]; first compound 0.8 µM): 0.961
relative viability ([5]; first compound 2.53 µM): 1.03
relative viability ([5]; first compound 8 µM): 0.958
relative viability ([6]; first compound 0.253 µM): 0.574
relative viability ([6]; first compound 0.8 µM): 0.452
relative viability ([6]; first compound 2.53 µM): 0.481
relative viability ([6]; first compound 8 µM): 0.497
relative viability ([7]; first compound 0.253 µM): 0.913
relative viability ([7]; first compound 0.8 µM): 0.999
relative viability ([7]; first compound 2.53 µM): 1.29
relative viability ([7]; first compound 8 µM): 1.07
relative viability ([8]; first compound 0.253 µM): 0.843
relative viability ([8]; first compound 0.8 µM): 0.908
relative viability ([8]; first compound 2.53 µM): 0.829
relative viability ([8]; first compound 8 µM): 0.87
relative viability ([9]; first compound 0.253 µM): 0.669
relative viability ([9]; first compound 0.8 µM): 0.757
relative viability ([9]; first compound 2.53 µM): 0.746
relative viability ([9]; first compound 8 µM): 0.608
relative viability ([10]; first compound 0.253 µM): 0.865
relative viability ([10]; first compound 0.8 µM): 0.913
relative viability ([10]; first compound 2.53 µM): 0.985
relative viability ([10]; first compound 8 µM): 0.8
relative viability ([11]; first compound 0.253 µM): 0.691
relative viability ([11]; first compound 0.8 µM): 0.706
relative viability ([11]; first compound 2.53 µM): 0.762
relative viability ([11]; first compound 8 µM): 0.625
relative viability ([12]; first compound 0.253 µM): 0.983
relative viability ([12]; first compound 0.8 µM): 1.08
relative viability ([12]; first compound 2.53 µM): 0.984
relative viability ([12]; first compound 8 µM): 0.828
relative viability ([13]; first compound 0.253 µM): 0.74
relative viability ([13]; first compound 0.8 µM): 0.663
relative viability ([13]; first compound 2.53 µM): 0.917
relative viability ([13]; first compound 8 µM): 0.775
relative viability ([14]; first compound 0.253 µM): 0.948
relative viability ([14]; first compound 0.8 µM): 0.996
relative viability ([14]; first compound 2.53 µM): 1.02
relative viability ([14]; first compound 8 µM): 1.01
relative viability ([15]; first compound 0.253 µM): 0.779
relative viability ([15]; first compound 0.8 µM): 0.961
relative viability ([15]; first compound 2.53 µM): 0.797
relative viability ([15]; first compound 8 µM): 0.659
relative viability ([16]; first compound 0.253 µM): 0.782
relative viability ([16]; first compound 0.8 µM): 0.771
relative viability ([16]; first compound 2.53 µM): 0.921
relative viability ([16]; first compound 8 µM): 0.743
relative viability ([17]; first compound 0.253 µM): 1.11
relative viability ([17]; first compound 2.53 µM): 1.09
relative viability ([17]; first compound 8 µM): 1.03
relative viability ([18]; first compound 0.253 µM): 0.894
relative viability ([18]; first compound 0.8 µM): 1.14
relative viability ([18]; first compound 2.53 µM): 1.04
relative viability ([18]; first compound 8 µM): 1.07
relative viability ([19]; first compound 0.253 µM): 0.546
relative viability ([19]; first compound 2.53 µM): 0.543
relative viability ([19]; first compound 8 µM): 0.553
relative viability ([20]; first compound 0.253 µM): 1.06
relative viability ([20]; first compound 0.8 µM): 0.957
relative viability ([20]; first compound 2.53 µM): 0.964
relative viability ([20]; first compound 8 µM): 0.875
relative viability ([21]; first compound 0.253 µM): 0.798
relative viability ([21]; first compound 0.8 µM): 0.794
relative viability ([21]; first compound 2.53 µM): 0.784
relative viability ([21]; first compound 8 µM): 0.875
relative viability ([22]; first compound 0.253 µM): 0.402
relative viability ([22]; first compound 0.8 µM): 0.336
relative viability ([22]; first compound 2.53 µM): 0.549
relative viability ([22]; first compound 8 µM): 0.324

Cc1csc(=NC2CCCCC2)n1/N=C/c1ccc(O)c(O)c1O [MIM1] + Nc1nc2[nH]cc(CCc3ccc(C(=O)N[C@@H](CCC(=O)O)C(=O)O)cc3)c2c(=O)[nH]1 [Pemetrexed] (partner 0.2 µM)
relative viability ([1]; first compound 0.2 µM): 0.47
relative viability ([1]; first compound 0.6325 µM): 0.466
relative viability ([1]; first compound 2 µM): 0.369
relative viability ([1]; first compound 6.325 µM): 0.361
relative viability ([1]; first compound 20 µM): 0.165
relative viability ([2]; first compound 0.2 µM): 1.25
relative viability ([2]; first compound 0.6325 µM): 1.07
relative viability ([2]; first compound 2 µM): 1.04
relative viability ([2]; first compound 6.325 µM): 0.847
relative viability ([2]; first compound 20 µM): 0.925
relative viability ([3]; first compound 0.2 µM): 0.29
relative viability ([3]; first compound 0.6325 µM): 0.317
relative viability ([3]; first compound 2 µM): 0.348
relative viability ([3]; first compound 6.325 µM): 0.235
relative viability ([3]; first compound 20 µM): 0.154
relative viability ([4]; first compound 0.2 µM): 1.18
relative viability ([4]; first compound 0.6325 µM): 1.04
relative viability ([4]; first compound 2 µM): 1.14
relative viability ([4]; first compound 6.325 µM): 0.948
relative viability ([4]; first compound 20 µM): 0.485
relative viability ([5]; first compound 0.2 µM): 0.721
relative viability ([5]; first compound 0.6325 µM): 0.848
relative viability ([5]; first compound 2 µM): 0.815
relative viability ([5]; first compound 6.325 µM): 0.739
relative viability ([5]; first compound 20 µM): 0.369
relative viability ([6]; first compound 0.2 µM): 0.608
relative viability ([6]; first compound 0.6325 µM): 0.537
relative viability ([6]; first compound 2 µM): 0.536
relative viability ([6]; first compound 6.325 µM): 0.512
relative viability ([6]; first compound 20 µM): 0.471
relative viability ([7]; first compound 0.2 µM): 0.995
relative viability ([7]; first compound 0.6325 µM): 1.09
relative viability ([7]; first compound 2 µM): 0.972
relative viability ([7]; first compound 6.325 µM): 0.892
relative viability ([7]; first compound 20 µM): 0.694
relative viability ([8]; first compound 0.2 µM): 0.883
relative viability ([8]; first compound 0.6325 µM): 0.905
relative viability ([8]; first compound 2 µM): 0.651
relative viability ([8]; first compound 6.325 µM): 0.786
relative viability ([8]; first compound 20 µM): 0.481
relative viability ([9]; first compound 0.2 µM): 0.424
relative viability ([9]; first compound 0.6325 µM): 0.448
relative viability ([9]; first compound 2 µM): 0.478
relative viability ([9]; first compound 6.325 µM): 0.412
relative viability ([9]; first compound 20 µM): 0.179
relative viability ([10]; first compound 0.2 µM): 0.377
relative viability ([10]; first compound 0.6325 µM): 0.419
relative viability ([10]; first compound 2 µM): 0.41
relative viability ([10]; first compound 6.325 µM): 0.41
relative viability ([10]; first compound 20 µM): 0.269
relative viability ([11]; first compound 0.2 µM): 0.421
relative viability ([11]; first compound 0.6325 µM): 0.436
relative viability ([11]; first compound 2 µM): 0.432
relative viability ([11]; first compound 6.325 µM): 0.448
relative viability ([11]; first compound 20 µM): 0.354
relative viability ([12]; first compound 0.2 µM): 0.362
relative viability ([12]; first compound 0.6325 µM): 0.34
relative viability ([12]; first compound 2 µM): 0.385
relative viability ([12]; first compound 6.325 µM): 0.328
relative viability ([12]; first compound 20 µM): 0.127
relative viability ([13]; first compound 0.2 µM): 0.259
relative viability ([13]; first compound 0.6325 µM): 0.27
relative viability ([13]; first compound 2 µM): 0.256
relative viability ([13]; first compound 6.325 µM): 0.232
relative viability ([13]; first compound 20 µM): 0.159
relative viability ([23]; first compound 0.2 µM): 0.341
relative viability ([23]; first compound 0.6325 µM): 0.393
relative viability ([23]; first compound 2 µM): 0.363
relative viability ([23]; first compound 6.325 µM): 0.191
relative viability ([23]; first compound 20 µM): 0.202
relative viability ([15]; first compound 0.2 µM): 0.195
relative viability ([15]; first compound 0.6325 µM): 0.194
relative viability ([15]; first compound 2 µM): 0.219
relative viability ([15]; first compound 6.325 µM): 0.148
relative viability ([15]; first compound 20 µM): 0.245
relative viability ([16]; first compound 0.2 µM): 0.22
relative viability ([16]; first compound 0.6325 µM): 0.261
relative viability ([16]; first compound 2 µM): 0.237
relative viability ([16]; first compound 6.325 µM): 0.234
relative viability ([16]; first compound 20 µM): 0.149
relative viability ([17]; first compound 0.2 µM): 0.276
relative viability ([17]; first compound 0.6325 µM): 0.298
relative viability ([17]; first compound 2 µM): 0.197
relative viability ([17]; first compound 6.325 µM): 0.272
relative viability ([17]; first compound 20 µM): 0.218
relative viability ([18]; first compound 0.2 µM): 0.57
relative viability ([18]; first compound 0.6325 µM): 0.443
relative viability ([18]; first compound 2 µM): 0.564
relative viability ([18]; first compound 6.325 µM): 0.476
relative viability ([18]; first compound 20 µM): 0.558
relative viability ([20]; first compound 0.2 µM): 0.465
relative viability ([20]; first compound 0.6325 µM): 0.422
relative viability ([20]; first compound 2 µM): 0.415
relative viability ([20]; first compound 6.325 µM): 0.421
relative viability ([20]; first compound 20 µM): 0.399
relative viability ([21]; first compound 0.2 µM): 0.208
relative viability ([21]; first compound 0.6325 µM): 0.194
relative viability ([21]; first compound 2 µM): 0.191
relative viability ([21]; first compound 6.325 µM): 0.19
relative viability ([21]; first compound 20 µM): 0.198
relative viability ([22]; first compound 0.2 µM): 0.161
relative viability ([22]; first compound 2 µM): 0.176
relative viability ([22]; first compound 6.325 µM): 0.152
relative viability ([22]; first compound 20 µM): 0.0413
